Experimental data as given in ChEMBL document CHEMBL1140742, “Discovery of novel chemotypes to a G-protein-coupled receptor through ligand-steered homology modeling and structure-based virtual screening” (J Med Chem, 2008).

How the values were obtained:
[1] = biological target: T1, Melanin-concentrating hormone receptor 1 (Homo sapiens, UniProt Q99705); assay: Displacement of [125I]MCH from human MCHR1 expressed in CHO cell membranes
[2] = biological target: T1, Melanin-concentrating hormone receptor 1; assay: Displacement of [125I]MCH from human MCHR1 expressed in CHO cell membranes at 5 ug/ml

T1 sequence (Q99705 whole entry): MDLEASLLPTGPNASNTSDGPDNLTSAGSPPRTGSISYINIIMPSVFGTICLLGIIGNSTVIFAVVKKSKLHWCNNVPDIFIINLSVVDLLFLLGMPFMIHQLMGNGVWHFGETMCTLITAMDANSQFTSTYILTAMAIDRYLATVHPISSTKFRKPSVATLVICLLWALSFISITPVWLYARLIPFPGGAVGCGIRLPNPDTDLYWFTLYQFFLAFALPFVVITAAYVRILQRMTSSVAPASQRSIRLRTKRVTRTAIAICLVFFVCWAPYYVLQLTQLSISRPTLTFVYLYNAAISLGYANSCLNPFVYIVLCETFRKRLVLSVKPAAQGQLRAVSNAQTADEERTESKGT

| Ki [1] | SMILES | inhibition [2] |
| --- | --- | --- |
| 8.1 µM | COc1ccc(/C=C2/SC(=S)N(CCCC(=O)OCCN(C)C)C2=O)cc1 |  |
|  | CCOc1ccc(NC2=NS(=O)(=O)c3cc([N+](=O)[O-])ccc32)cc1 | 4% |
|  | COc1ccccc1Nc1nc(N)nc(CN(C)C2CCCCC2)n1 | 0% |
| 11.3 µM | CCN(CC)Cc1cc(N=C2NS(=O)(=O)c3ccccc32)ccc1OC(=O)c1ccc(OC)cc1 |  |
| 20.9 µM | CC(C)N(CCCNC(=O)c1cc2sccc2n1C)Cc1ccccc1 |  |
|  | COc1cc(C(=O)Oc2ccc(N(Cc3cccs3)C3=NS(=O)(=O)c4ccccc43)cc2)cc(OC)c1OC | 10% |
| 7.5 µM | Cc1ccc(S(=O)(=O)CN(Cc2ccccc2)CS(=O)(=O)c2ccc(C)cc2)cc1 |  |
|  | CCOc1ccc(Nc2nc(N)nc(CN(C)C3CCCCC3)n2)cc1 | 3% |
|  | O=C(Nc1ccccc1)c1c(-c2ccccc2)n(Cc2ccccc2)c2nc3ccccc3n12 | 15% |
| 7.8 µM | Cc1ccccc1Nc1nc(N)nc(CN(C)Cc2cccc(Cl)c2)n1 |  |
| 7.5 µM | Cc1ccccc1SCN(CCc1ccccc1)CSc1ccccc1C |  |
| 11.9 µM | CCN(CC)CCCn1c(-c2ccc(Br)cc2)cn2c3ccccc3nc12 |  |
|  | O=C(c1cc2sccc2n1Cc1ccc(F)cc1)N(CCCN1CCOCC1)Cc1cccnc1 | 44% |
|  | COc1ccc(-c2cn3c4ccccc4nc3n2CCCN2CCOCC2)cc1 | 0% |
|  | COc1ccc(Nc2nc(N)nc(CN(C)C3CCCCC3)n2)cc1 | 0% |
|  | COc1ccccc1CN(C(=O)c1cc2sccc2n1C)C1CC(C)(C)NC(C)(C)C1 | 3% |
|  | CCCn1c(-c2ccc(-c3ccccc3)cc2)c(C(C)=O)n2c3ccccc3nc12 | 18% |
|  | CCC(=O)Oc1ccc(NC2=NS(=O)(=O)c3ccccc32)cc1 | 31% |
| 1.7 µM | CCCCCCN(CS(=O)(=O)c1ccc(C)cc1)CS(=O)(=O)c1ccc(C)cc1 |  |
|  | CCOc1ccccc1Nc1nc(N)nc(CN(C)C2CCCCC2)n1 | 16% |
|  | Cc1ccc(S(=O)(=O)CN(CS(=O)(=O)c2ccc(C)cc2)c2ccc(Br)cc2F)cc1 | 10% |
|  | COc1cc(CN(CCCn2ccnc2)C(=O)c2cc3sccc3n2C)cc(OC)c1 | 0% |
